According to PubChem BioAssay AID2060601 (Molecular Pharmacology Branch, DTP, NCI, 2025):

Tested on: 874868-142-R-J2-PDC complex spheroids, growth % test/control
Assay: Anticancer human tumor 874868-142-R-J2-PDC patient-derived head and neck squamous carcinoma cell line growth inhibition [CLK]
Conditions: for IC50: curve of first compound; for viability, T/C: stronger effect = lower value
Source text: A high-throughput screen of multi-cell type tumor spheroids was designed to identify active combinations of […] and targeted small molecules. Complex spheroids include a stromal component modeled by human endothelial cells (HUVEC) and fibroblasts modeled by human mesenchymal stem cells (MSCs). The concentration ranges selected for each drug and investigational agent were based upon clinically achievable concentrations if the clinical Cmax of the agent was known.
Compounds. The drugs and investigational agents: cirtuvivint (SM08502; NSC835563), CC-671 (NSC850746), vemurafenib (NSC761431), tapotoclax (NSC804041), sotorasib (NSC818433), adagrasib (NSC831453), MRTX-1133 (NSC836407), BAY2416964 (NSC825713), copanlisib (NSC816437), inavolisib (NSC800729), abemaciclib (NSC768073), osimertinib (NSC779217), entinostat (NSC756642), eltanexor (KPT-8602, NSC794443), venetoclax (NSC766270), ceralasertib (NSC777638), bortezomib (NSC756655), olaparib (NSC753686), talazoparib (NSC767125), alisertib (NSC759677), peposertib (NSC802822), gemcitabine (NSC613327), 5-fluorouracil (NSC19893), SN-38 (NSC673596), oxaliplatin (NSC266046), paclitaxel (NSC125973), and doxorubicin (NSC123127), were obtained from the National Cancer Institute (NCI) Developmental Therapeutics Program Chemical Repository. The FDA-approved anticancer drug set is available from the Developmental Therapeutics Program at https://dtp.cancer.gov/organization/dscb/obtaining/available plates.htm. […] The stock solutions were prepared in dimethyl sulfoxide (DMSO, Sigma-Aldrich, St. Louis, MO, cat. D2650), except for the platinum complexes which were prepared in saline (Quality Biological, Gaithersburg, MD, cat. 114-055-101), at 800-fold the tested concentration and stored at -70 degrees C prior to their use. All drugs and investigational agents were tested over a range starting from a high concentration at or near the clinical Cmax and decreasing in half-log increments. If the clinical Cmax for an agent had not been determined, the highest concentration tested was 10 microM.
Cell Culture. All cells were maintained in an incubator at 37 degrees C and 5% CO2 with 95% humidity. The PDC lines were cultured according to standard operating procedures established by the NCI PDMR. Briefly, all PDCs were thawed and cultured in Matrigel-coated flasks prepared with a working solution of 1X Ham's F-12 nutrient mix, without supplementation (Invitrogen, Waltham, MA, cat. 11765054), 100 U/mL penicillin-streptomycin (Invitrogen, cat. 15140122), and 2.5% Matrigel (Corning Inc., Corning, NY, cat. 354248) for the first three passages. The 947758-054-R-J2-PDC line was cultured in 6B/Colon 1A media, which includes advanced DMEM/F-12 (Thermo Fisher Scientific, cat. 12634028), 10 mM HEPES (Thermo Fisher Scientific, cat. 15630080), 1X GlutaMAX supplement (Thermo Fisher Scientific, cat. 35050061), 0.1 mg/mL primocin (InvivoGen, cat. ant-pm-2), 10% defined fetal bovine serum, heat inactivated (HyClone Laboratories Inc., cat. SH30070.03HI), 1.25 mM N-Acetyl-L-cysteine (Sigma-Aldrich, cat. A9165), 10 mM nicotinamide (Sigma-Aldrich, cat. N0636), 1X B-27 supplement (Thermo Fisher Scientific, cat. 17504044), 1X N-2 supplement (Thermo Fisher Scientific, cat. 17502048), and 10 microM Y-27632 dihydrochloride (Tocris Bioscience, cat. 1254). The 876862-298-R-J1-PDC was cultured in 6E media, which includes all 6B/Colon 1A media components plus 50% L-WRN conditioned media (ATCC, cat. CRL-3276), 50 ng/mL recombinant human EGF recombinant protein (hEGF; Thermo Fisher Scientific, cat. PHG0311), 10 ng/mL recombinant human fibroblast growth factor 10 (hGFG-10; PeproTech, cat. 100-26), 1 ng/mL recombinant human fibroblast growth factor 2 (hFGF-2; PeproTech, cat. 100-18B), and 1 µM prostaglandin E2 (PGE2; Tocris, cat. 2296). The 227483-062-R1-J1-PDC line was cultured in Panc media, containing all 6E components except hFGF-2, with the addition of 500 nM SB-431542 (Selleckchem, cat. S1067) and 10 nM gastrin (Tocris, cat. 3006). […]
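Also: spheroids exposed to the compounds for 7 days.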

C#Cc1c(F)ccc2cc(O)cc(-c3ncc4c(N5CC6CCC(C5)N6)nc(OCC56CCCN5CC(F)C6)nc4c3F)c12 (configuration not stated) + CN1CCN(c2cc(C(=O)Nc3cc4cc(-c5cnn(C)c5)ccc4cn3)ccn2)CC1 gave an IC50 (second compound 0.0316 µM) of 8540 nM, an IC50 (second compound 0.1 µM) of 1410 nM and an IC50 (second compound 0.316 µM) of less than 31.6 nM. For the same compound, the IC50 (second compound 1 µM) was less than 31.6 nM, the IC50 (second compound 3.16 µM) was less than 31.6 nM and the IC50 (second compound 10 µM) was less than 31.6 nM. The viability, T/C (second compound 0.0316 µM, first compound 0.0316 µM) was 98.2%, the viability, T/C (second compound 0.0316 µM, first compound 0.1 µM) was 85.1% and the viability, T/C (second compound 0.0316 µM, first compound 0.316 µM) was 76.3%. It also gave a viability, T/C (second compound 0.0316 µM, first compound 1 µM) of 73%, a viability, T/C (second compound 0.0316 µM, first compound 3.16 µM) of 49.8% and a viability, T/C (second compound 0.0316 µM, first compound 10 µM) of 51.2%. For the same compound, the viability, T/C (second compound 0.1 µM, first compound 0.0316 µM) was 69.2%, the viability, T/C (second compound 0.1 µM, first compound 0.1 µM) was 74.1% and the viability, T/C (second compound 0.1 µM, first compound 0.316 µM) was 68.8%. It also gave a viability, T/C (second compound 0.1 µM, first compound 1 µM) of 51.2%, a viability, T/C (second compound 0.1 µM, first compound 3.16 µM) of 41.5% and a viability, T/C (second compound 0.1 µM, first compound 10 µM) of 54.2%. For the same compound, the viability, T/C (second compound 0.316 µM, first compound 0.0316 µM) was 21%, the viability, T/C (second compound 0.316 µM, first compound 0.1 µM) was 24% and the viability, T/C (second compound 0.316 µM, first compound 0.316 µM) was 17.3%. It also gave a viability, T/C (second compound 0.316 µM, first compound 1 µM) of 13%, a viability, T/C (second compound 0.316 µM, first compound 3.16 µM) of 15.5% and a viability, T/C (second compound 0.316 µM, first compound 10 µM) of 15.4%. It also gave a viability, T/C (second compound 1 µM, first compound 0.0316 µM) of 0.39%, a viability, T/C (second compound 1 µM, first compound 0.1 µM) of 0.42% and a viability, T/C (second compound 1 µM, first compound 0.316 µM) of 0.39%. The viability, T/C (second compound 1 µM, first compound 1 µM) was 0.91%, the viability, T/C (second compound 1 µM, first compound 3.16 µM) was 0.5% and the viability, T/C (second compound 1 µM, first compound 10 µM) was 1.33%. It also gave a viability, T/C (second compound 3.16 µM, first compound 0.0316 µM) of 0.37%, a viability, T/C (second compound 3.16 µM, first compound 0.1 µM) of 2.5% and a viability, T/C (second compound 3.16 µM, first compound 0.316 µM) of 0.31%. For the same compound, the viability, T/C (second compound 3.16 µM, first compound 1 µM) was 0.32%, the viability, T/C (second compound 3.16 µM, first compound 3.16 µM) was 0.26% and the viability, T/C (second compound 3.16 µM, first compound 10 µM) was 4.54%. The viability, T/C (second compound 10 µM, first compound 0.0316 µM) was 0.53%, the viability, T/C (second compound 10 µM, first compound 0.1 µM) was 1.9% and the viability, T/C (second compound 10 µM, first compound 0.316 µM) was 3.6%. The viability, T/C (second compound 10 µM, first compound 1 µM) was 0.18%, the viability, T/C (second compound 10 µM, first compound 3.16 µM) was 0.9% and the viability, T/C (second compound 10 µM, first compound 10 µM) was 6.16%.
